Assay results: patent US11596639B2, “Substituted indole Mcl-1 inhibitors” (Vanderbilt University, priority 2016, dated 2023)

Experiments:
Mcl-1 = Mcl-1 (Homo sapiens (Human), UniProt Q07820); experiment: TR-FRET binding assay, FITC-Bak peptide and MBP-tagged Mcl-1; settings: read-out: Ki for Inhibition of Mcl-1 by TR-FRET assay
Procedure: Compounds are diluted in DMSO in a 16-point, semilog serial dilution scheme. […] The plate was mixed and incubated for 3 hours at room temperature. […] TR-FRET signal is plotted and IC50 and Ki values are calculated in the same manner as the fluorescence polarization anisotropy based competition assays.

[1] = test system: H929 human cancer cell lines; experiment: Cellular viability / proliferation (Cell TiterGlo, 72 h); format: cell-based; settings: Homo sapiens, NCI-H929, 72 h, read-out: GI50 on cellular proliferation of H929 human cancer cell lines, H929 cells, 72 h, Cell TiterGlo, 10% FBS
In short: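 Top dose 50 μM, serially diluted 2-fold, applied one day after seeding (1,000 cells/well, 10% FBS), DMSO below 1%.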

Chain of Mcl-1 (Q07820 172-327): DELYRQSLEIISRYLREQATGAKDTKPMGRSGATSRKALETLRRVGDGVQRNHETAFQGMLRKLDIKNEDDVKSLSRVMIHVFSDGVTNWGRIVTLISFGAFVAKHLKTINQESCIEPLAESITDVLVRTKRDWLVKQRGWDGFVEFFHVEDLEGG

| Structure (SMILES) | Ki (Mcl-1) | GI50 [1] |
| --- | --- | --- |
| COc1ccc(N2C[C@@H](C)n3c(c(CCCOc4cc(C)c(Cl)c(C)c4)c4ccc(Cl)c(-c5c(C)nn(C)c5C)c43)C2=O)c2c1c(C(=O)O)cn2Cc1cc(C)ccn1 [Example 619, (R)-7-(7-chloro-10-(3-(4-chloro-3,5-dimethylphenoxy)propyl)-4-methyl-1-oxo-6-(1,3,5-trimethyl-1H-pyrazol-4-yl)-3,4-dihydropyrazino[1,2-a]indol-2(1H)-yl)-4-methoxy-1-((4-methylpyridin-2-yl)methyl)-1H-indole-3-carboxylic acid] | 0.00026 µM | 0.47 µM |
| Cc1cc(OCCCc2c3n(c4c(-c5c(C)nn(C)c5C)c(Cl)ccc24)[C@H](C)CN(c2cn(C)c4ccc(-c5nc6c(C)cccn6n5)cc24)C3=O)cc(C)c1Cl [Example 698, (R)-7-Chloro-10-(3-(4-chloro-3,5-dimethylphenoxy)propyl)-4-methyl-2-(1-methyl-5-(8-methyl-[1,2,4]triazolo[1,5-a]pyridin-2-yl)-1H-indol-3-yl)-6-(1,3,5-trimethyl-1H-pyrazol-4-yl)-3,4-dihydropyrazino[1,2-a]indol-1(2H)-one] | 0.0018 µM | 0.62 µM |
| COCCn1c(C(=O)O)cc2cc(OC)cc(N3C[C@@H](C)n4c(c(CCCOc5cc(C)c(Cl)c(C)c5)c5ccc(Cl)c(-c6c(C)ncnc6C)c54)C3=O)c21 [Example 660, (R)-7-(7-chloro-10-(3-(4-chloro-3,5-dimethylphenoxy)propyl)-6-(4,6-dimethylpyrimidin-5-yl)-4-methyl-1-oxo-3,4-dihydropyrazino[1,2-a]indol-2(1H)-yl)-5-methoxy-1-(2-methoxyethyl)-1H-indole-2-carboxylic acid] | < 0.0002 µM | 0.33 µM |
| C=C(C)c1ccnc(Cn2c(C(=O)O)cc3cc(C)cc(N4C[C@@H](C)n5c(c(CCCOc6cc(C)c(Cl)c(C)c6)c6ccc(Cl)c(-c7c(C)nn(C)c7C)c65)C4=O)c32)c1 [Example 641, (R)-7-(7-chloro-10-(3-(4-chloro-3,5-dimethylphenoxy)propyl)-4-methyl-1-oxo-6-(1,3,5-trimethyl-1H-pyrazol-4-yl)-3,4-dihydropyrazino[1,2-a]indol-2(1H)-yl)-5-methyl-1-((4-(prop-1-en-2-yl)pyridin-2-yl)methyl)-1H-indole-2-carboxylic acid] | < 0.0002 µM | 0.35 µM |
| COCCn1c(C(=O)O)cc2cc(C)cc(N3C[C@@H](C)n4c(c(CCCOc5cc(C)c(Cl)c(C)c5)c5ccc(Cl)c(-c6c(C)n[nH]c6C)c54)C3=O)c21 [Example 718, (R)-7-(7-chloro-10-(3-(4-chloro-3,5-dimethylphenoxy)propyl)-6-(3,5-dimethyl-1H-pyrazol-4-yl)-4-methyl-1-oxo-3,4-dihydropyrazino[1,2-a]indol-2(1H)-yl)-1-(2-methoxyethyl)-5-methyl-1H-indole-2-carboxylic acid] | < 0.0002 µM | 0.41 µM |
| Cc1cc(OCCCc2c3n(c4c(-c5c(C)nn(C)c5C)c(Cl)ccc24)[C@H](C)CN(c2cc(OCc4ccccc4)cc4cc(C(=O)O)n(Cc5ccccn5)c24)C3=O)cc(C)c1Cl [Example 588, (R)-5-(benzyloxy)-7-(7-chloro-10-(3-(4-chloro-3,5-dimethylphenoxy)propyl)-4-methyl-1-oxo-6-(1,3,5-trimethyl-1H-pyrazol-4-yl)-3,4-dihydropyrazino[1,2-a]indol-2(1H)-yl)-1-(pyridin-2-ylmethyl)-1H-indole-2-carboxylic acid] | 0.0014 µM | 1.4 µM |
| Cc1cc(OCCCc2c3n(c4c(-c5c(C)nn(C)c5C)c(Cl)ccc24)[C@H](C)CN(c2cc(COCc4cscn4)cc4cc(C(=O)O)n(C)c24)C3=O)cc(C)c1Cl [Example 688, (R)-7-(7-chloro-10-(3-(4-chloro-3,5-dimethylphenoxy)propyl)-4-methyl-1-oxo-6-(1,3,5-trimethyl-1H-pyrazol-4-yl)-3,4-dihydropyrazino[1,2-a]indol-2(1H)-yl)-1-methyl-5-((thiazol-4-ylmethoxy)methyl)-1H-indole-2-carboxylic acid] | 0.00022 µM | 0.43 µM |
| Cc1nn(C)c(C)c1-c1c(Cl)ccc2c(CCCOc3cccc4ccccc34)c3n(c12)[C@H](C)CN(c1cn(C)c2ccc(C(=O)O)cc12)C3=O [Example 545, (R)-3-(7-Chloro-4-methyl-10-(3-(naphthalen-1-yloxy)propyl)-1-oxo-6-(1,3,5-trimethyl-1H-pyrazol-4-yl)-3,4-dihydropyrazino[1,2-a]indol-2(1H)-yl)-1-methyl-1H-indole-5-carboxylic acid] | 0.00039 µM | 0.56 µM |
| COCCOc1cc(N2C[C@@H](C)n3c(c(CCCOc4cc(C)c(Cl)c(C)c4)c4ccc(Cl)c(-c5c(C)nn(C)c5C)c43)C2=O)c2c(c1)cc(C(=O)O)n2Cc1ccccn1 [Example 537, (R)-7-(7-Chloro-10-(3-(4-chloro-3,5-dimethylphenoxy)propyl)-4-methyl-1-oxo-6-(1,3,5-trimethyl-1H-pyrazol-4-yl)-3,4-dihydropyrazino[1,2-a]indol-2(1H)-yl)-5-(2-methoxyethoxy)-1-(pyridin-2-ylmethyl)-1H-indole-2-carboxylic acid] | < 0.0002 µM | < 0.2 µM |
| Cc1cc(OCCCc2c3n(c4c(-c5c(C)nn(C)c5C)c(Cl)ccc24)[C@H](C)CN(c2cc(CN4CCOCC4)cc4cc(C(=O)O)n(C)c24)C3=O)cc(C)c1Cl [Example 623, (R)-7-(7-chloro-10-(3-(4-chloro-3,5-dimethylphenoxy)propyl)-4-methyl-1-oxo-6-(1,3,5-trimethyl-1H-pyrazol-4-yl)-3,4-dihydropyrazino[1,2-a]indol-2(1H)-yl)-1-methyl-5-(morpholinomethyl)-1H-indole-2-carboxylic acid] | < 0.0002 µM | < 0.2 µM |
| Cc1cc(OCCCc2c3n(c4c(-c5c(C)ncnc5C)c(Cl)ccc24)[C@H](C)CN(c2cn(C)c4ccc(-c5ncccn5)cc24)C3=O)cc(C)c1Cl [Example 642, (R)-7-Chloro-10-(3-(4-chloro-3,5-dimethylphenoxy)propyl)-6-(4,6-dimethylpyrimidin-5-yl)-4-methyl-2-(1-methyl-5-(pyrimidin-2-yl)-1H-indol-3-yl)-3,4-dihydropyrazino[1,2-a]indol-1(2H)-one] | 0.003 µM | 0.79 µM |
| Cc1cc(OCCCc2c3n(c4c(-c5c(C)nn(C)c5C)c(Cl)ccc24)[C@H](C)CN(c2cc(CN4CCN(C)CC4)cc4cc(C(=O)O)n(C)c24)C3=O)cc(C)c1Cl [Example 544, (R)-7-(7-Chloro-10-(3-(4-chloro-3,5-dimethylphenoxy)propyl)-4-methyl-1-oxo-6-(1,3,5-trimethyl-1H-pyrazol-4-yl)-3,4-dihydropyrazino[1,2-a]indol-2(1H)-yl)-1-methyl-5-((4-methylpiperazin-1-yl)methyl)-1H-indole-2-carboxylic acid] | < 0.0002 µM | 0.32 µM |
| COc1ccc(N2C[C@@H](C)n3c(c(CCCOc4cc(C)c(Cl)c(C)c4)c4ccc(Cl)c(-c5c(C)n[nH]c5C)c43)C2=O)c2c1cc(C(=O)O)n2Cc1ccccn1 [Example 724, (R)-7-(7-chloro-10-(3-(4-chloro-3,5-dimethylphenoxy)propyl)-6-(3,5-dimethyl-1H-pyrazol-4-yl)-4-methyl-1-oxo-3,4-dihydropyrazino[1,2-a]indol-2(1H)-yl)-4-methoxy-1-(pyridin-2-ylmethyl)-1H-indole-2-carboxylic acid] | < 0.0002 µM | 0.33 µM |
